These are literature values, as cited in patent US20230390254A1, “PHARMACEUTICAL COMPOSITIONS OF UBROGEPANT AND PROCESS FOR PREPARATION THEREOF” (Aurobindo Pharma Ltd, priority 2022, published 2023).

For series [1] the following is noted: disclosed in U.S. Pat. No. 10,117,836.
Experiment in series [2]: not given
The source holds these as a separate data set.

Where two headings read alike, the source gives them in different places.

Regarding `C[C@@H]1[C@H](c2ccccc2)C[C@H](NC(=O)c2cnc3c(c2)C[C@@]2(C3)C(=O)Nc3ncccc32)C(=O)N1CC(F)(F)F` [Ubrogepant, (3′S)—N-((3 S,5S,6R)-6-methyl-2-oxo-5-phenyl-1-(2,2,2trifluoroethyl)piperidin-3-yl)-2′-oxo-1′,2′,5,7 tetrahydrospiro[cyclopenta[b]pyridine-6,3′-pyrrolo[2,3b]pyridine]-3-carboxamide], the solubility result runs as follows: (in acetone) “freely soluble”; (in acetonitrile) “freely soluble”; (in ethanol) “freely soluble”; (in methanol) “freely soluble”; (in water) “insoluble”. For the same compound, the aqueous solubility result in series [1] is given as “poor aqueous solubility”. Moreover, the “solubility (BCS)” value in series [2] was “low solubility”.
